In PubChem BioAssay AID1645848:
In brackets after ≈: the same amount, converted by molar mass.

Settings: buffer; pH 7.4; 6.0 h; 150.0 µM

Row | solubility kinetic | SMILES
1 | 2.59 µg/mL (≈ 6.1 µM) | COc1cccc(CNc2ccc(S(=O)(=O)Nc3nc4ccccc4[nH]3)cc2)c1O
2 | < 1 µg/mL | CCOc1ccc(Nc2nc(C)c(NC(=O)c3ccc(C)cc3)c(Nc3ccc(OCC)cc3)n2)cc1
3 | > 65 µg/mL | CCn1cc(C(=O)O)c(=O)c2cnc(N3CCN(C(=S)Nc4ccccc4)CC3)nc21
4 | < 1 µg/mL | CC(C)c1ccccc1-c1ncc(F)c(NCc2ccc(-c3ccn[nH]3)cc2)n1
5 | < 1 µg/mL | O=S(=O)(Nc1ccc2ccccc2c1)c1ccc(NCc2cccc(Cl)c2O)cc1
6 | < 1 µg/mL | CC(C)(C)OC(=O)N[C@@H](Cc1ccc(O[S+](=O)([O-])c2cccc3cnccc23)cc1)C(=O)Nc1ccc(-c2ccccc2)cc1
7 | < 1 µg/mL | CCOc1ccccc1C(=O)Nc1ccncc1C(=O)Nc1cccc(S(=O)(=O)C(F)(F)F)c1
8 | < 1 µg/mL | C#Cc1ccc(NC(=O)c2cnn3c(C)cc(C)nc23)cc1
9 | 5.36 µg/mL (≈ 14.8 µM) | COC(=O)c1ccnc(-c2cc(C(=O)NCCc3ccccc3)ccn2)c1
10 | < 1 µg/mL | Fc1cc(Nc2nc(-c3ccncc3)nc3ccccc23)ccc1-c1cn[nH]c1
11 | 2.36 µg/mL (≈ 4.15 µM) | CCc1ccc(NC(=O)CSC2=Nc3ccccc3C3=NC(CC(=O)NCc4ccc5c(c4)OCO5)C(=O)N23)cc1 (centres undefined)
12 | 2.72 µg/mL (≈ 8.94 µM) | OCc1ccc(-c2nn(Cc3ccccc3)c3ccccc23)o1
13 | < 1 µg/mL | O=S(=O)(Nc1cccc(C(F)(F)F)c1)c1ccc(NS(=O)(=O)c2ccc3c(c2)OCCO3)cc1
14 | 18.5 µg/mL (≈ 61.4 µM) | OCc1cccc(-c2cc(-c3cccnc3)c3cncn3c2)c1
15 | < 1 µg/mL | Cc1ccc(-c2csc(NC(=O)c3ccncc3NS(=O)(=O)c3ccc(C)cc3)n2)cc1

Continued, molecule first:

Row | SMILES | solubility kinetic
16 | Cc1nn2c(c1-c1ccccc1-c1ccccc1)N(CCC(C)C)CCC2 | < 1 µg/mL
17 | O=c1[nH]c(C2CCN(CC3CCCCC3)CC2)nn1Cc1ccccc1 | > 52 µg/mL
18 | C=C1c2cccc(O)c2C(O)=C2C(=O)[C@]3(O)C(O)=C(C(N)=O)C(=O)[C@@H](N(C)C)[C@@H]3[C@@H](O)[C@H]12 | > 65 µg/mL
19 | Cc1ccc(C)c(S(=O)(=O)NCC2CN(Cc3ccccc3)CCO2)c1 (centres undefined) | > 55 µg/mL
20 | CC1=Nc2cc(C(=O)NC3CCCC3)ccc2Sc2ccc(C)cc21 | 1.05 µg/mL (≈ 3 µM)
21 | Cn1nnnc1Sc1ncnc2sccc12 | > 37 µg/mL
22 | O=C(NC1CCCc2c1[nH]c1ccccc21)c1ccccc1 (centres undefined) | 7.97 µg/mL (≈ 27.4 µM)
23 | CCN1CCN(CCCOc2ccc(-c3ccccc3)cc2)CC1 | > 48 µg/mL
24 | O=C(NC[C@H]1Cn2c(-c3ccc(Cl)cc3)cnc2CO1)C1CCCC1 | > 36 µg/mL
25 | COc1ccccc1CNC(=O)CCCn1nc(C)c2c(C)n(-c3ccc(C)cc3)nc2c1=O | 2.29 µg/mL (≈ 4.98 µM)
26 | CC(C)(C)CN1CCNc2cc(Nc3ccccc3)ncc2C1 | 38.5 µg/mL (≈ 124 µM)
27 | CCOC(=O)c1nn(-c2ccc(OC)cc2)c(=O)c2c(N)scc12 | 5.68 µg/mL (≈ 16.5 µM)
28 | Cc1cccc2nc(NC3=NC(c4[nH]ncc4Cl)C4=C(CCCC4=O)N3)oc12 (centres undefined) | 1.82 µg/mL (≈ 4.6 µM)
29 | COc1ccc(-n2nc(C3CCN([S+](=O)([O-])c4c(C)noc4C)CC3)[nH]c2=O)cc1 | < 1 µg/mL
30 | CC(=O)Nc1nc(C)c(-c2ccc(Cl)c(S(=O)(=O)NCCO)c2)s1 | > 57 µg/mL
31 | Cc1sc(NC(=O)Cc2ccc3c(c2)OCO3)nc1-c1ccc2c(c1)CCN2C(=O)C1CCCCC1 | < 1 µg/mL
32 | CN1CCN(c2ccc(Nc3nn4c(=O)c5ccccc5nc4s3)cc2)CC1 | > 58 µg/mL
33 | COc1cccc(CNC(=O)c2c(OC)cc(=O)n3c2CCN(C(=O)c2ccc(C)cc2C)CC3)c1 | > 72 µg/mL
34 | Nc1c(C(=O)Nc2ccc(Cl)c(C(F)(F)F)c2)sc2nc3c(cc12)N1CCC3CC1 | < 1 µg/mL
35 | COc1ccc(C(=O)N[C@@H]2CCC[C@@H]2C(=O)N2CCC(Cc3ccccc3)CC2)cc1 | 17.9 µg/mL (≈ 42.6 µM)
36 | COC(=O)C1=COC(C)C2CN3CCc4c([nH]c5cc(OC)c(OC)cc45)C3CC12 (centres undefined) | 46.9 µg/mL (≈ 114 µM)
37 | Cc1sc2ncnc(Sc3nnnn3-c3ccccc3)c2c1-c1ccccc1 | 0.29 µg/mL (≈ 0.72 µM)
38 | CCCn1cnc2cc(NCc3ccc(OC)cc3OC)ccc21 | 40.3 µg/mL (≈ 124 µM)
39 | Cc1noc(C)c1-c1csc(N2CCC(C(N)=O)CC2)n1 | > 45 µg/mL
